{"source": "paper PMC10584170", "about": "“Machine learning-based phenotypic imaging to characterise the targetable biology of Plasmodium falciparum male gametocytes for the development of transmission-blocking antimalarials” (PLOS Pathogens, 2023)", "key": {"[1]": {"system": "P. falciparum male gametocytes", "test": "P. falciparum Dual Gamete Formation Assay (PfDGFA), male readout (exflagellation)", "assay_type": "cell-based, Plasmodium falciparum NF54", "conditions": "for inhibition at 2 µM: 24h preincubation with gametocytes", "in_short": "(§1)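 First, day-14 P. falciparum NF54 gametocytes receive compound for 24 h at 37°C in 1% O2/3% CO2. Next, ookinete medium with Cy3 anti-Pfs25 triggers gametogenesis at 28°C and male exflagellation is imaged. Finally, after 24 h in the dark, Cy3-labelled females are imaged.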"}, "[2]": {"system": "P. falciparum female gametocytes", "test": "P. falciparum Dual Gamete Formation Assay (PfDGFA), female readout (Pfs25-positive female gametes)", "assay_type": "cell-based, Plasmodium falciparum NF54", "conditions": "for inhibition at 2 µM: 24h preincubation with gametocytes", "in_short": "as §1"}, "[3]": {"system": "P. falciparum male gametocytes", "test": "PhIDDLI timecourse assay, compound added at timepoints after triggering male gametogenesis", "assay_type": "cell-based, Plasmodium falciparum NF54", "description": "To gain greater understanding of their activity, selected molecules displaying different inhibition phenotypes in the initial screen were re-tested. Rather than subjecting gametocytes to a 24h preincubation prior to inducing gametogenesis, compounds were added at varying timepoints after triggering male gametogenesis. Samples were then fixed 20 min post-induction, imaged and analysed similarly using the PhIDDLI pipeline.\nAlternatively, if compound action over time was to be assessed, 1.5ml tubes with appropriate dilutions of test compounds were prepared for each timepoint. Gametogenesis was then triggered in the mature gametocyte culture with ookinete medium and temperature decrease from 37°C. At appropriate times, 200 μl of triggered culture was sampled and mixed with test compound. All samples were then allowed to continue gametogenesis and fixed as described previously with paraformaldehyde after 20 min (when a DMSO-treated sample could be expected to be exflagellating).\n100 μl of the fixed cell suspensions were added to wells of a 24 well plate containing 1ml PBS and a poly-l-lysine-coated glass coverslip. Cells were allowed to settle and adhere to the coverslip overnight at 4°C before coverslips were transferred to a hydrophobic membrane (Parafilm) for immunofluorescence staining in a humidified, dark box. Cells were permeabilised with 0.1% Triton-X100 in PBS for 10 min before washing in PBS three times. Non-specific binding was blocked by incubating coverslips with PBS + 10% fetal bovine serum (FBS) (blocking buffer) for 1 h. Gametocytes and microgametes were visualised by labelling with an anti-alpha tubulin antibody (raised from chicken embryo brain tubulin but cross-reacts with many other species) (clone DM1A (Sigma)) 1:500 dilution in blocking buffer for 1 h, washed as before, and then stained with an anti-mouse Alexa488 secondary antibody (Thermo-Fisher) 1:1,000 dilution in blocking buffer for a further 1 h. After a final series of washes, the coverslips were mounted on glass slides with VectaShield mountant (Vector Laboratories) containing 4′,6-diamidino-2-phenylindole (DAPI) to visualise cellular DNA.\nAll slides were imaged using a Nikon Ti fluorescence microscope using an x100 oil objective and 1.5x zoom. For each sample, tubulin-postive, DAPI-positive stained gametocytes/gametes were imaged at random. Z-stack images with 0.3μm slices were captured for each field of view and images deconvolved and transformed by maximum intensity projection within the Nikon NIS Elements software. Within raw images, cells were initially identified by an automated analysis pipeline developed in ICY Bioimage Analysis based upon the intensity of the tubulin staining captured which assigns a region of interest (ROI) around each cell. All ROIs were reviewed by a trained operator and adjusted if necessary to reflect the true outline of the cell (for example if two cells touching had been allocated the same ROI). Raw images contained between 1 and 8 extractable cells.\nCode for the PhIDDLI pipeline was written in Python 3.8 and executed by command line within a 64-bit Ubuntu virtual machine running within Oracle VM VirtualBox 6.1. […] Principle component analysis of compound phenotypes (Fig 5) was performed using ClustViz (https://biit.cs.ut.ee/clustvis/) using ln(x+1) transformation, and k-means clustering of the resultant PCA data was coded in R and executed in R Studio version 1.1.456 to identify optimum cluster using the elbow method."}, "[4]": {"system": "calcium-dependent protein kinase 1 (PfCDPK1)", "conditions": "cited from earlier work"}, "[5]": {"system": "cyclin-dependent protein kinase 6 (PfPK6)", "parameters": "method as in PMID 26934697", "conditions": "cited from earlier work"}, "HepG2 cells": {"system": "HepG2 cells", "test": "HepG2 cytotoxicity counter-screen"}, "[6]": {"system": "P. falciparum protein kinase G (PfPKG)", "conditions": "cited from earlier work"}}, "note": "Read-outs that look alike come from different tables or passages of the source.", "data": [{"smiles": "CNC(=O)c1ccccc1Nc1nc(Nc2ccc(N3CCN(C)CC3)nc2)ncc1C.Cl", "note": "[TC11]", "values": [{"measurement": "Cytotox ratio Pf Male", "setting": "[1]", "result": 13.8}, {"measurement": "IC50", "setting": "[1]; this study, read-out: Pf DGFA IC50 MALE", "result": 250, "unit": "nM"}, {"measurement": "Cytotox ratio Pf Female", "setting": "[2]", "result": 0.344}, {"measurement": "cells showing apparent DNA replication", "setting": "[3]; compound added concurrent with induction, fixed 20 min post-induction, DMSO control 61.4%", "result": 18.6, "unit": "%"}, {"measurement": "effect on exflagellation", "setting": "[3]; compound added concurrent with triggering male gametogenesis or 2 min later", "result": "substantially reduced"}, {"measurement": "amounts of cells showing evidence of DNA replication", "setting": "[3]; compound added during the first 2 min of male gametogenesis", "result": "markedly reduced"}, {"measurement": "effect on exflagellation", "setting": "[3]; compound added later than 2 min post-induction (up to 10 min)", "result": "inhibited exflagellation"}, {"measurement": "activity against recombinant PfCDPK1", "setting": "[4]; enzymatic assay", "result": "active"}, {"measurement": "activity against recombinant PfPK6", "setting": "[5]", "result": "active"}, {"measurement": "Mean TOX", "setting": "HepG2 cells; mean of the HepG2 TOX50 values", "result": 3.44, "unit": "µM"}]}, {"smiles": "CC(C)(CN)c1nc(-c2ccc(Cl)c(O)c2)c(-c2ccncc2)[nH]1.Cl", "note": "[TCMDC-140369]", "values": [{"measurement": "inhibition at 2 µM", "setting": "[1]; Plasmodium falciparum, average of replicates, read-out: Average inhibition male (%)", "result": 95, "unit": "%"}, {"measurement": "inhibition at 2 µM", "setting": "[1]; Plasmodium falciparum, replicate R1, read-out: % inhibition male (individual replicates) R1", "result": 96, "unit": "%"}, {"measurement": "inhibition at 2 µM", "setting": "[1]; Plasmodium falciparum, replicate R2, read-out: % inhibition male (individual replicates) R2", "result": 97.9, "unit": "%"}, {"measurement": "inhibition at 2 µM", "setting": "[1]; Plasmodium falciparum, replicate R3, read-out: % inhibition male (individual replicates) R3", "result": 95.1, "unit": "%"}, {"measurement": "inhibition at 2 µM", "setting": "[1]; Plasmodium falciparum, replicate R4, read-out: % inhibition male (individual replicates) R4", "result": 90.9, "unit": "%"}, {"measurement": "IC50", "setting": "[1]; Plasmodium falciparum, PfDGFA, 24 h incubation with gametocytes before induction, exflagellation readout, read-out: Male IC50", "result": 910, "unit": "nM"}, {"measurement": "inhibition at 2 µM", "setting": "[2]; Plasmodium falciparum, average of replicates, read-out: Average inhibition female (%)", "result": 51.4, "unit": "%"}, {"measurement": "inhibition at 2 µM", "setting": "[2]; Plasmodium falciparum, replicate R1, read-out: % inhibition female (individual replicates) R1", "result": 22.1, "unit": "%"}, {"measurement": "inhibition at 2 µM", "setting": "[2]; Plasmodium falciparum, replicate R2, read-out: % inhibition female (individual replicates) R2", "result": 80, "unit": "%"}, {"measurement": "inhibition at 2 µM", "setting": "[2]; Plasmodium falciparum, replicate R3, read-out: % inhibition female (individual replicates) R3", "result": 27.7, "unit": "%"}, {"measurement": "inhibition at 2 µM", "setting": "[2]; Plasmodium falciparum, replicate R4, read-out: % inhibition female (individual replicates) R4", "result": 75.6, "unit": "%"}, {"measurement": "IC50", "setting": "[2]; Plasmodium falciparum, PfDGFA, 24 h incubation with gametocytes before induction, female gamete readout, read-out: Female IC50", "result": 270, "unit": "nM"}, {"measurement": "activity against PfCDPK1", "setting": "[4]", "result": "additional activity"}, {"measurement": "PfPKG inhibition", "setting": "[6]", "result": "PfPKG inhibitor"}, {"measurement": "Tox50", "setting": "HepG2 cells; cytotoxic activity against HepG2 cells", "result": 17.63, "unit": "µM"}]}]}
